This is an account of results in patent US12384817B2, “Peptide having protective activity against cell damage caused by particulate matter, and uses for same” (CAREGEN CO., LTD., priority 2020, dated 2025).

In data set [1] the test system is cytochrome P450. The experiment in a line: Cytochrome P450 activity in particulate matter-treated A549 cells (P450-Glo Assay). The settings on record: A549 human alveolar epithelial cells; peptide pretreatment 1 hour at 20, 100, 200 μM; then 50 μg/cm^2 urban particulate matter 24 hours; FIG. 4. The data set is classed as cell-based. The protocol:
In addition, in order to confirm whether the peptide can suppress respiratory damage caused by particulate matter, an experiment for measuring the activity of cytochrome P450 was also performed on A549 cells, which are human alveolar epithelial cells.
First, human alveolar epithelial cells, A549 cells were seeded into a 96-well plate at a density of 1.2×10^4 cells/well. After overnight incubation, the media were replaced with serum-free media. The alveolar epithelial cells, A549 cells were pretreated with the synthesized peptides for 1 hour at each concentration (20 μM, 100 μM, and 200 μM). Then, the cells were treated with 50 μg/cm^2 of urban particulate matter (Sigma, NIST1648A) for 24 hours. After the treated cells were collected, the activity of cytochrome P450 was measured using P450-Glo™ Assay kit (Promega).

Data set [2] has as its system cytochrome P450. The experiment in a line: Cytochrome P450 activity in particulate matter-treated HaCaT cells (P450-Glo Assay). To be noted: HaCaT human keratinocytes; peptide pretreatment 1 hour at 20, 100, 200 μM; then 50 μg/cm^2 urban particulate matter 24 hours; FIG. 3. The data set is classed as cell-based. From the text: When polyaromatic hydrocarbons (PAHs) present in particulate matter penetrate into cells and bind to AHR, it promotes nuclear translocation of AHR. It is known that the AHR translocated into the nucleus forms a complex AHR/ARNT with an AHR nuclear translocator (ARNT), and this complex act as a transcription factor to promote the expression of cytochrome P450 (CYPs). In order to confirm the effect of the synthesized peptide in inhibiting cell damage caused by particulate matter, an experiment was performed for confirming whether the peptide inhibits the activity of cytochrome P450 after the cells were treated with particulate matter.
First, HaCaT cells, which are human keratinocytes, were seeded into a 96-well plate at a density of 1×10^4 cells/well. After overnight incubation, the media were replaced with serum-free media. The keratinocytes, HaCaT were pretreated with the synthesized peptides for 1 hour at each concentration (20 μM, 100 μM, and 200 μM). Then, the cells were treated with 50 μg/cm^2 of urban particulate matter (Sigma, NIST1648A) for 24 hours. After the keratinocytes were collected, the activity of cytochrome P450 was measured using P450-Glo™ Assay kit (Promega).

No end group written: not given here.

Turning to SSNAEVLALF [SEQ ID NO: 1, SSNAEVLALF], the “activity of cytochrome P450 increased by the treatment of particulate matter” value with cytochrome P450 [1] and with cytochrome P450 [2] was “reduced in a concentration dependent manner” each time.
